Test results: article PMC7958298 (Journal of the American Chemical Society, 2020)

Key:
[1] = test system: hairpin derived from HIV RNA; assay: BLI binding to unrelated hairpin derived from HIV RNA; settings: SI Figure 1
[2] = test system: pre-miRNA-21; assay: Circular dichroism melting of pre-miRNA-21; format: physicochemical; settings: pre-miRNA-21 alone vs with 39, SI Figure 3
[3] = test system: pre-miRNA-21 stem; assay: BLI binding to pre-miRNA-21 stem missing the hairpin loop; settings: relative to pre-miRNA-21 hairpin, SI Figure 1

Lys-DabG-hAlaA-Arg-Asp-DabA-Leu-hAlaG-Ala-Lys [Compound 39]
binding to unrelated hairpin derived from HIV RNA [1]: high affinity | shift in melting temperature of pre-miRNA-21 in the presence of peptide [2]: no significant shift in melting temperature | reduction of affinity towards the pre-miRNA-21 stem, missing the hairpin loop [3]: over 50 fold
